Data as given in PubChem BioAssay AID330 (DTP/NCI, 2004).
Where “and” joins values, the source holds several entries; their conditions need not be identical. Identical values can stand only once. Toxic doses and inconclusive results are not listed.

Test system: P388 leukemia ip, CD2F1 mice, survival T/C
Test: NCI In Vivo Anticancer Drug Screen. Data for tumor model P388 Leukemia (intraperitoneal) in CD2F1 (CDF1) mice
Settings: endpoint: median survival time, higher = longer survival
Procedure, shortened: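 Mice carrying the transplanted tumor received test compound or vehicle. Survival was recorded in each group, and the value is the treated-group measurement divided by that of the vehicle-treated control group.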

[1] = dose: 15.0 mg/kg/injection, schedule: Q01DX005 (ip), vehicle: saline with Tween-80
[2] = dose: 30.0 mg/kg/injection, schedule: Q01DX005 (ip), vehicle: saline with Tween-80
[3] = dose: 60.0 mg/kg/injection, schedule: Q01DX005 (ip), vehicle: saline with Tween-80
[4] = dose: 120.0 mg/kg/injection, schedule: Q01DX005 (ip), vehicle: saline with Tween-80
[5] = dose: 240.0 mg/kg/injection, schedule: Q01DX005 (ip), vehicle: saline with Tween-80
[6] = dose: 50.0 mg/kg/injection, schedule: Q01DX009 (ip), vehicle: saline with Tween-80
[7] = dose: 100.0 mg/kg/injection, schedule: Q01DX009 (ip), vehicle: saline with Tween-80

COC1=C(OC)C(=O)C2=C(OCCCCO2)C1=O
T/C [1]: 104 % of control
T/C [2]: 103 % of control
T/C [3]: 101 % of control and 107 % of control
T/C [4]: 100 % of control
T/C [5]: 99 % of control

O=C1c2cc(I)ccc2NC(O)c2cccn21 (stereo not drawn)
T/C (dose: 0.1 mg/kg/injection, schedule: Q01DX005 (ip), vehicle: water): 93 % of control
T/C (dose: 0.2 mg/kg/injection, schedule: Q01DX005 (ip), vehicle: water): 93 % of control
T/C (dose: 0.4 mg/kg/injection, schedule: Q01DX005 (ip), vehicle: water): 99 % of control
T/C (dose: 0.8 mg/kg/injection, schedule: Q01DX005 (ip), vehicle: water): 100 % of control
T/C (dose: 1.6 mg/kg/injection, schedule: Q01DX005 (ip), vehicle: water): 96 % of control
T/C (dose: 5.0 mg/kg/injection, schedule: Q01DX005 (ip), vehicle: distilled water + Tween-80): 94 % of control
T/C (dose: 10.0 mg/kg/injection, schedule: Q01DX005 (ip), vehicle: distilled water + Tween-80): 100 % of control
T/C (dose: 20.0 mg/kg/injection, schedule: Q01DX005 (ip), vehicle: distilled water + Tween-80): 99 % of control
T/C (dose: 40.0 mg/kg/injection, schedule: Q01DX005 (ip), vehicle: distilled water + Tween-80): 92 % of control
T/C (dose: 80.0 mg/kg/injection, schedule: Q01DX005 (ip), vehicle: distilled water + Tween-80): 93 % of control

O=C(Nc1ccc(Cc2ccc(NC(=O)C34CC5CC(CC(C5)C3)C4)cc2)cc1)C12CC3CC(CC(C3)C1)C2
T/C (dose: 50.0 mg/kg/injection, schedule: Q01DX005 (ip), vehicle: saline with Tween-80): 88 % of control
T/C (dose: 100.0 mg/kg/injection, schedule: Q01DX005 (ip), vehicle: saline with Tween-80): 88 % of control

CCCCN1C(=O)N/C(=C/C(=O)OCC)C1=O
T/C (dose: 25.0 mg/kg/injection, schedule: Q01DX009 (ip), vehicle: Klucel (hydroxypropylcellulose) (HPC)): 93 % of control
T/C (dose: 50.0 mg/kg/injection, schedule: Q01DX009 (ip), vehicle: Klucel (hydroxypropylcellulose) (HPC)): 103 % of control
T/C (dose: 100.0 mg/kg/injection, schedule: Q01DX009 (ip), vehicle: Klucel (hydroxypropylcellulose) (HPC)): 102 % of control

CC(C)(C)NCc1cc(Nc2ccnc3cc(Cl)ccc23)cc(-c2ccc(Cl)cc2)c1O
T/C [1]: 100 % of control
T/C [2]: 100 % of control
T/C [3]: 95 % of control and 98 % of control
T/C [4]: 105 % of control
T/C [5]: 97 % of control

c1ccc2c(Nc3ccc(C4=NCCN4)cc3)nnc(Nc3ccc(C4=NCCN4)cc3)c2c1
T/C (dose: 3.13 mg/kg/injection, schedule: Q04DX003 (ip), vehicle: saline with Tween-80): 100 % of control
T/C (dose: 6.25 mg/kg/injection, schedule: Q04DX003 (ip), vehicle: saline with Tween-80): 110 % of control
T/C (dose: 12.5 mg/kg/injection, schedule: Q04DX003 (ip), vehicle: saline with Tween-80): 110 % of control
T/C (dose: 25.0 mg/kg/injection, schedule: Q01DX009 (ip), vehicle: saline with Tween-80): 195 % of control
T/C [6]: 210 % of control
T/C [7]: 250 % of control
T/C (dose: 100.0 mg/kg/injection, schedule: Q04DX003 (ip), vehicle: saline with Tween-80): 154 % of control and 168 % of control

CCCCCCCCCCCCCCCCCC[N+]1([O-])CCCC1
T/C (dose: 50.0 mg/kg/injection, schedule: Q01DX009 (ip), vehicle: water): 93 % of control

O=C(/C=C/c1ccc([N+](=O)[O-])cc1)NN=C(c1ccccc1)c1ccccc1
T/C [6]: 106 % of control and 96 % of control
T/C [7]: 99 % of control and 91 % of control
T/C (dose: 200.0 mg/kg/injection, schedule: Q01DX009 (ip), vehicle: saline with Tween-80): 98 % of control
T/C (dose: 400.0 mg/kg/injection, schedule: Q01DX009 (ip), vehicle: saline with Tween-80): 99 % of control

CC(=O)SC12CCCN1C(=O)C1CCCN1C2=O (stereo not drawn)
T/C (dose: 100.0 mg/kg/injection, schedule: Q04DX002 (ip), vehicle: saline): 100 % of control
T/C (dose: 200.0 mg/kg/injection, schedule: Q04DX002 (ip), vehicle: saline): 111 % of control
T/C (dose: 400.0 mg/kg/injection, schedule: Q04DX002 (ip), vehicle: saline): 117 % of control

Cc1cc(=O)n(-c2ccc(F)cc2)[nH]1
T/C (dose: 60.0 mg/kg/injection, schedule: Q01DX005 (ip), vehicle: Klucel (hydroxypropylcellulose) (HPC)): 89 % of control
T/C (dose: 120.0 mg/kg/injection, schedule: Q01DX005 (ip), vehicle: Klucel (hydroxypropylcellulose) (HPC)): 92 % of control
T/C (dose: 240.0 mg/kg/injection, schedule: Q01DX005 (ip), vehicle: Klucel (hydroxypropylcellulose) (HPC)): 90 % of control
